According to US20250144067A1, “PERSONALIZED STARVATION THERAPY FOR CANCER” (Faeth Therapeutics, Inc., priority 2021, published 2025):
Where a name gives a salt, the structure may show the parent alone. Read-outs that look alike come from different tables or passages of the source.

Experiments:
[1] = system: NCI-H292 lung cancer cells; assay: FDA drug screening, complete media vs cholesterol-free media without statin (TABLE 1); type: cell-based, human
[2] = system: NCI-H292 lung cancer cells; assay: FDA drug screening, complete media vs cholesterol-free media with simvastatin (TABLE 2); type: cell-based, human
[3] = Complete minus Cholesterol-free, >0 enhanced anti-cancer activity, about 0 neutral, <0 antagonist
[4] = NCI-H292 cells, cholesterol-free media without statin
[5] = NCI-H292 cells, FDA drug library screen, cholesterol-free media with simvastatin 0.04 μM
[6] = NCI-H292 cells, FDA drug library screen, complete media
[7] = complete media minus cholesterol-free media + simvastatin, >0 enhanced anti-cancer activity, about 0 neutral, <0 antagonist
[8] = NCI-H292 cells, FDA drug library screen, cholesterol-free media without statin
[9] = Complete minus Cholesterol-free, greater than 0 enhanced anti-cancer activity, about 0 neutral, below 0 antagonist
[10] = NCI-H292 cells, cholesterol-free media without statin, FDA drug library screen
[11] = complete media vs cholesterol-free media + simvastatin (0.04 μM), >0 enhanced anti-cancer activity, about 0 neutral, <0 antagonist
[12] = NCI-H292 cells, drug in cholesterol-free media with simvastatin 0.04 μM
[13] = NCI-H292 cells, drug in complete media

Compound: O=P(O)(O)C(O)(Cn1ccnc1)P(=O)(O)O [Zoledronic acid (monohydrate)]
- Difference [1, 3]: −0.23
- Cholesterol-free [1, 4]: 1.033
- Complete ([1]; NCI-H292 cells, complete media): 0.8069
- Cholesterol-free media + simvastatin (0.04 μM) [2, 5]: 0.7262
- Complete Media [2, 6]: 0.8945
- Difference [2, 7]: 0.17

Compound: CC[N+](C)(C)c1cccc(O)c1.[Cl-] [Edrophonium (chloride)]
- Difference ([1]; Complete minus Cholesterol-free, […]): −0.15
- Cholesterol-free [1, 8]: 1.134
- Complete [1, 6]: 0.9821
- Cholesterol-free media + simvastatin (0.04 μM) ([2]; NCI-H292 cells, cholesterol-free media with simvastatin 0.04 μM, […]): 1.155
- Complete Media ([2]; NCI-H292 cells, complete media, […]): 1.199
- Difference ([2]; complete media minus cholesterol-free media + simvastatin, […]): 0.04

Compound: Teprenone
- Cholesterol-free [1, 4]: 1.353
- Difference ([1]; complete vs cholesterol-free media, […]): −0.31
- Cholesterol-free media + simvastatin (0.04 μM) [2, 5]: 1.117
- Complete Media [2, 6]: 0.9777
- Difference ([2]; complete media vs cholesterol-free media + simvastatin (0.04 μM), […]): −0.14

Compound: CC(=O)O[C@]1(C(C)=O)CC[C@H]2[C@@H]3C=C(Cl)C4=CC(=O)[C@@H]5C[C@@H]5[C@]4(C)[C@H]3CC[C@@]21C [Cyproterone acetate]
- Difference ([1]; Complete minus Cholesterol-free, greater than 0 enhanced anti-cancer activity, about 0 neutral, below 0 antagonists): −1.74
- Cholesterol-free ([1]; NCI-H292 cells in cholesterol-free media without statin): 2.754
- Complete ([1]; NCI-H292 cells in complete media): 1.015
- Cholesterol-free media + simvastatin (0.04 μM) ([2]; NCI-H292 cells, cholesterol-free media with simvastatin 0.04 μM, cell growth value in FDA drug screen): 1.003
- Complete Media ([2]; NCI-H292 cells, complete media, cell growth value in FDA drug screen): 1.068
- Difference [2, 7]: 0.07

Compound: O=c1[nH]ccc2c(S(=O)(=O)N3CCCNCC3)cccc12 [Hydroxyfasudil]
- Cholesterol-free [1]: 0.944
- Complete [1]: 1.011
- Difference [1]: 0.07
- Cholesterol-free media + simvastatin (0.04 μM) [2]: 0.9404
- Complete Media [2]: 0.8562
- Difference [2]: −0.08

Compound: CN[C@H]1CC[C@@H](c2ccc(Cl)c(Cl)c2)c2ccccc21 [Sertraline (hydrochloride)]
- Difference [1, 9]: −0.11
- Complete [1, 6]: 0.9984
- Cholesterol-free media + simvastatin (0.04 μM) [2, 5]: 0.9083
- Complete Media [2, 6]: 1.2
- Difference [2, 7]: 0.29

Compound: CN1[C@@H]2CC[C@H]1C[C@@H](OC(=O)C(CO)c1ccccc1)C2 (some centres unmarked) [Atropine (sulfate monohydrate)]
- Complete [1]: 1.139
- Difference [1]: 0.08
- Cholesterol-free media + simvastatin (0.04 μM) [2]: 0.6465
- Complete Media [2]: 0.6938
- Difference [2]: 0.05

Compound: O=C(CCCN1CCC(O)(c2ccc(Br)cc2)CC1)c1ccc(F)cc1 [Bromperidol]
- Difference [1, 9]: −0.13
- Cholesterol-free [1, 8]: 1.177
- Complete [1, 6]: 1.05
- Cholesterol-free media + simvastatin (0.04 μM) [2, 5]: 0.4758
- Complete Media [2, 6]: 1.318
- Difference [2, 7]: 0.84

Compound: Oc1c(I)cc(Cl)c2cccnc12 [Clioquinol]
- Cholesterol-free [1, 10]: 0.6089
- Difference ([1]; complete vs cholesterol-free media, >0 enhanced anti-cancer activity, about 0 neutral, <0 antagonist): 0.57
- Cholesterol-free media + simvastatin (0.04 μM) [2, 5]: 1.168
- Complete Media [2, 6]: 1.009
- Difference [2, 11]: −0.16

Compound: CC(=O)NC[C@H]1CN(c2ccc(N3CCOCC3)c(F)c2)C(=O)O1 [Linezolid]
- Difference [1, 3]: 0.04
- Cholesterol-free [1, 10]: 0.9483
- Complete ([1]; NCI-H292 cells, complete media, FDA drug library screen): 0.9881
- Cholesterol-free media + simvastatin (0.04 μM) [2, 12]: 1.38
- Complete Media [2, 13]: 1.187
- Difference [2, 11]: −0.19

Compound: C[C@]12CCC(=O)C=C1[C@@H]1C[C@@H]1[C@H]1[C@@H]3[C@@H]4C[C@@H]4[C@@]4(CCC(=O)O4)[C@@]3(C)CC[C@@H]12 [Drospirenone]
- Cholesterol-free [1, 4]: 1.382
- Complete ([1]; NCI-H292 cells, complete media): 1.062
- Difference ([1]; complete vs cholesterol-free media, greater than 0 enhanced anti-cancer activity, about 0 neutral, below 0 antagonists): −0.32
- Cholesterol-free media + simvastatin (0.04 μM) [2, 12]: 1.4
- Complete Media [2, 13]: 1.139
- Difference [2, 11]: −0.26

Compound: Cc1c(OCC(F)(F)F)ccnc1C[S@@+]([O-])c1nc2ccccc2[nH]1 [(R)-Lansoprazole]
- Difference [1, 9]: −0.18
- Cholesterol-free [1, 8]: 0.9835
- Complete [1, 6]: 0.8054
- Cholesterol-free media + simvastatin (0.04 μM) ([2]; NCI-H292 cells, cholesterol-free media with simvastatin 0.04 μM, FDA drug library screen (TABLE 2)): 1.431
- Complete Media ([2]; NCI-H292 cells, complete media, FDA drug library screen (TABLE 2)): 1.389
- Difference ([2]; complete media minus cholesterol-free media + simvastatin (0.04 μM), >0 enhanced anti-cancer activity, about 0 neutral, <0 antagonist): −0.04

Compound: NC(=O)c1ncn([C@@H]2O[C@H](CO)[C@@H](O)[C@H]2O)n1 [Ribavirin]
- Difference [1, 9]: −0.11
- Cholesterol-free [1, 8]: 0.8402
- Complete [1, 6]: 0.7281
- Cholesterol-free media + simvastatin (0.04 μM) [2, 12]: 0.9314
- Complete Media [2, 13]: 0.6899
- Difference [2, 11]: −0.24
